Like-named read-outs stand apart in the source and are kept apart here. Where no end group is shown, it is not given here.
Experiments:
[1] = MDA-MB-231 cell viability (CellTiter 96 AQuous One); assay type: cell-based, human; conditions: human, MDA-MB-231 human breast cancer cells; MDA-MB-231 cells, incubated two days, apoEdp about 6 to about 300 μM; read-out: 50% cytotoxic dose
Method: (§1) To determine whether apoEdp affects cell survival, cell viability of human umbilical vein endothelial cells (HUVECs) and MDA-MB-231 human breast cancer cells was determined by using CellTiter 96® AQuous One solution cell proliferation kit (Promega, Madison, Wis.).
(§2) HUVECs were obtained from Lonza (Walkersville, Md.) and were maintained in endothelial cell basal medium (EBM-2) (Lonza, Walkersville, Md.) supplemented with 10% fetal bovine serum (FBS) and growth factors. (bullet kit, Lonza, Walkersville, Md.) HUVECs were used between passages 2-6. Human Breast Cancer cells MDA-MB-231 were obtained from the American Type Tissue Collection and cultured in Dulbecco's Modified Eagle's medium supplemented with 10% fetal bovine serum, 0.1 mg/mL streptomycin and 25 U/mL penicillin.
(§3) The MDA-MB-231 cells were in 96-well plates at about 5,000 cells per well. The MDA-MB-231 cells were then allowed to adhere to the plate with apoEdp in various concentrations in the range of about 6 μM to about 300 μM. The cells were incubated for two days, and cell numbers were determined using the CellTiter 96® AQuous One Solution cell proliferation kit. (Promega, Madison, Wis.)

[2] = system: MDA-MB-231 human breast cancer cells; assay: as above; assay type: cell-based; conditions: MDA-MB-231 cells, apoEdp up to 300 μM
Method: as §1, §2, §3

FAK = assay: Western blot, VEGF-induced phosphorylation of FAK in HUVECs; assay type: cell-based, human; conditions: apoEdp about 6 to about 50 μM for 1 h, VEGF 10 ng/mL ten minutes, concentration dependent
Method: (§4) The mechanism by which apoEdp inhibits angiogenesis and tumor growth was evaluated using Western Blot Analysis.
(§5) Confluent HUVECs were grown in EBM-2 containing 1% FBS for twenty-four hours. The medium was then replaced with 1% FBS media in the presence or absence of apoEdp in the range of about 6 μM to about 50 μM. The cells were allowed to grow for one hour; then VEGF was added at a concentration of 10 ng/mL. The cells were then incubated for ten minutes to detect the phosphorylated forms of angiogenic signaling molecules.
(§6) The cells were lysed, quantified for protein concentration, and separated on 4% to 20% pre-cast SDS-PAGE gels. Western blots were then performed of the control cell lysates and the apoEdp treated cell lysates. The western blots were performed with antibodies against the phosphorylated and non-phosphorylated (control) forms of Flk-1, c-Src, FAK, Erk1/2, Akt and eNOS. (Santa Cruz Biotechnology, Santa Cruz, Calif.).

c-Src = assay: Western blot, VEGF-induced phosphorylation of c-Src in HUVECs; assay type: cell-based, human; conditions: apoEdp about 6 to about 50 μM for 1 h, VEGF 10 ng/mL ten minutes, concentration dependent
Method: as §4, §5, §6

[3] = human, human umbilical vein endothelial cells (HUVECs)
Method: The HUVECs, as described above, were seeded in 96-well plates at about 10,000 cells per well. The next day, the cells were starved for 18 hours in EBM-2+1% FBS without any growth supplement. The HUVECs were then incubated with apoEdp in various concentrations in the range of about 6 μM to about 300 μM. An hour later, 50 ng/mL of vascular endothelial growth factor (VEGF) was introduced. The cells were incubated for two days, and cell numbers were determined using the CellTiter96 AQuous One Solution cell proliferation kit. (Promega, Madison, Wis.)

[4] = system: MDA-MB-231 human breast cancer cells xenograft; assay type: in vivo; conditions: nude mice, about 40 mg/kg/day intralesionally for three consecutive days, versus PBS
Method: The effect of apoEdp on tumor growth in vivo was observed by testing its inhibitory effect on xenograft tumor growth post-injection in nude mice.
The test subjects were female nu/nu mice, aged 8-12 weeks, weighing about 20 g. (Charles River Laboratories, Harlan, Indianapolis, Ind.) The mice were weighed, coded, and divided into experimental groups at random. The mice were subcutaneously injected with about 3×10^6 MDA-MB-231 human breast cancer cells in 100 μL PBS. The cells were injected into the right sides of the dorsal area of the test subjects. The tumor size was allowed to reach about 100 mm^3 which took about ten days.
Following injection of the tumor cells, the subjects were given injections for three consecutive days. About 40 mg/kg/day of apoEdp was injected intralesionally into the test subjects, and about […] of sterile PBS was injected intralesionally into the control subjects.
In order to evaluate tumor growth, tumor volume was determined every seven days by measuring the tumor with a digital caliper and calculating tumor volume. Volume was calculated using the formula, V=A×B^2×0.52, where A=longest diameter of the tumor, and B=the shortest diameter of the tumor.

Akt = assay: Western blot, VEGF-induced phosphorylation of Akt in HUVECs; assay type: cell-based, human; conditions: apoEdp about 6 to about 50 μM for 1 h, VEGF 10 ng/mL ten minutes, concentration dependent
Method: as §4, §5, §6

Flk-1 = assay: Western blot, VEGF-induced phosphorylation of Flk-1 in HUVECs; assay type: cell-based, human; conditions: apoEdp about 6 to about 50 μM for 1 h, VEGF 10 ng/mL ten minutes, concentration dependent
Method: as §4, §5, §6

Erk1/2 = assay: Western blot, VEGF-induced phosphorylation of Erk1/2 in HUVECs; assay type: cell-based, human; conditions: apoEdp about 6 to about 50 μM for 1 h, VEGF 10 ng/mL ten minutes, concentration dependent
Method: as §4, §5, §6

eNOS = assay: Western blot, VEGF-induced phosphorylation of eNOS in HUVECs; assay type: cell-based, human; conditions: apoEdp about 6 to about 50 μM for 1 h, VEGF 10 ng/mL ten minutes, concentration dependent
Method: as §4, §5, §6

[5] = system: VEGF-induced angiogenesis; assay: Rabbit corneal micropocket assay of VEGF-induced angiogenesis; assay type: in vivo, New Zealand White Rabbits; conditions: rabbit eye, 1% apoEdp eye drops 50 μL topically five times per day for five days, versus saline drops
Method: The effect of apoEdp on angiogenesis in vivo was observed by testing its inhibitory effect on VEGF-induced angiogenesis in a corneal micropocket assay of a rabbit eye model. A corneal micropocket was created with a modified von Graefe cataract knife in each eye of several 2-3 pound New Zealand White Rabbits. A micropellet of 500 μm by 500 μm was prepared which contained 0.4 g of Compritol 888 ATO (Gattefosse) combined with 0.1 g of Squalane oil (Sigma Aldrich) and 20 mg/mL L-α-Phosphatidylcholine. The 20 mg/mL L-α-Phosphatidylcholine contained either saline for the control subjects or 160 ng of VEGF for the test subjects. The right eye of each test subject was implanted with a VEGF-containing pellet and the left eye of each test subject was implanted with a saline-containing pellet. Each of the pellets was positioned about 2 mm from the corneal limbus. […] The area of neovascular response, vessel length and clock hours of new blood vessel formation of each group were all calculated according to the formula, Area (mm^2)=C/12×3.1416[r^2−(r−L)^2] where, C=the number of clock hours at the limbus involved in the neovascular response, L=the length of the longest neovascular pedicle from the limbus onto the anterior cornea, and r=the radius of the cornea.

For LRKLRKRLLLRKLRKRLL [apoEdp], the CC50 at 48 h [1] was over 300 µM, the “effect on cell viability” value [2] was “no effect on cell viability” and the “VEGF-induced phosphorylation of FAK” value (FAK) was “significantly inhibited”. For the same sequence, the “VEGF-induced phosphorylation of c-Src” value (c-Src) was “significantly inhibited”, the CC50 at 48 h [3] was about 103 µM and the “tumor growth (tumor volume)” value [4] was “significantly inhibited”. The “VEGF-induced phosphorylation of Akt” value (Akt) was “significantly inhibited”, the “VEGF-induced phosphorylation of Flk-1” value (Flk-1) was “significantly inhibited” and the “VEGF-induced phosphorylation of Erk1/2” value (Erk1/2) was “significantly inhibited”. The “VEGF-induced phosphorylation of eNOS” value (eNOS) was “significantly inhibited” and the “VEGF-induced angiogenesis (area of neovascular response)” value [5] was “significantly inhibited”.

Source: patent US20120053128A1, “Method of inhibiting angiogenesis” (XAVIER UNIVERSITY, priority 2010, published 2012)
